Source: patent US20250084096A1, “TERT-BUTYL (S)-2-(4-(PHENYL)-6H-THIENO[3, 2-F][1, 2, 4]TRIAZOLO[4, 3-A] [1,4]DIAZEPIN-6-YL) ACETATE DERIVATIVES AND RELATED COMPOUNDS AS BROMODOMAIN BRD4 INHIBITORS FOR TREATING CANCER” (Genentech, Inc., priority 2018, published 2025)

Key:
BRD4_BD1 bromodomain = BRD4_BD1 bromodomain (Homo sapiens (Human), UniProt O60885); experiment: BRD4 BD1 biochemical binding assay (TR-FRET); details: displacement of biotinylated ligand Compound C
Protocol: (§1) The following assay was used to measure the IC50 for the test compounds ability to bind to the BRD4_BD1 and BRD4_BD2 bromodomains.
(§2) DMSO was backfilled to a final volume of 30 nL as required. […] 1× Assay Buffer was dispensed (5 μL per well) into Minimum Signal control wells. 5 μL of Solution A-3× was dispensed into test wells and Maximum Signal control wells (containing DMSO instead of test compound). Samples were incubated 10 minutes at room temperature. 5 μL of Solution B-3x was dispensed into all wells. Samples were incubated incubate for 10 minutes at room temperature. 5 μL of Solution C-3x was dispensed into all wells. Samples were incubated 40 minutes at room temperature. Plates were read using an Envision (Perkin Elmer) with the following settings: Detection—LANCE Dual Laser 50/200. […] Percentage inhibition was calculated relative to the Minimum Signal control and Maximum Signal control wells. IC50 values were derived by four parameter curve fitting using the Robust method.

BRD4_BD2 bromodomain = BRD4_BD2 bromodomain (Homo sapiens (Human), UniProt O60885); experiment: BRD4 BD2 biochemical binding assay (TR-FRET); details: displacement of biotinylated ligand Compound C
Protocol: as §1, §2

BRD4 [1] = molecular target: T1, BRD4 (Homo sapiens (Human), UniProt O60885); experiment: BRD4 degradation assay in PC3-Steap1 cells; format: cell-based; details: for Dmax: complete loss = −100%, read-out: Sinf (maximum degradation, percent change in protein level)
Protocol: 2 μL of each sample from the serial dilution was transferred to 98 μL of assay media as an intermediate dilution. 5 μL of intermediate dilution was added to 45 μL of cell plate. Columns 1, 2, 23 and 24 were treated with only 0.2% w/v final concentration of DMSO for data normalization as “neutral controls”. After compound treatment, cell plates were stored in a 37° C. incubator for 4 hours.
Cell plate was incubated at room temperature for 20 minutes. Well contents were aspirated and washed with 100 μL/well PBS 3 times. 50 μL/well of PBS containing 0.5% w/v bovine serum albumen, 0.5% w/v Triton X-100 (Antibody Dilution Buffer) was added to each well. Samples were incubated for 30 minutes. Well contents were aspirated and washed 3 times with 100 μL/well of PBS. PBS was aspirated from the wells.
25 μL per well of BRD4 antibody diluted in buffer was added and incubated overnight at 4° C. On day-3 samples were washed 3 times with 100 μL/well of PBS. […] Samples were incubated for 2 hours at room temperature. Samples were washed 3 times with 100 μL PBS.
(§3) Quantitative fluorescence imaging of BRD4 was carried out using an Opera Phenix High-Content Screening System. […] Hoechst channel was used to identify nuclear region. […] Data analysis was carried out using Genedata Screener, with DMSO and no primary antibody control treated samples being used to define the 0% and 100% changes in BRD4. The dose-response log(inhibitor) vs. response was used to define the inflexion point of curve (IC50) and the plateau of the maximal effect. The Sit value reports degradation as percent change in protein level, so complete loss of the protein target is −100%. Sinf is the maximum degradation achieved, obtained by determining the bottom of a dose-response (where the S-shaped curve levels out).

BRD4 [2] = molecular target: T1, BRD4; experiment: BRD4 degradation assay in EoL-1 cells; format: cell-based
Protocol: 2 μL of each sample from the serial dilution was transferred to 98 μL of assay media as an intermediate dilution. 5 μL of each well of the intermediate dilution was added to 45 μL of cell plate. Columns 1, 2, 23 and 24 were treated with only 0.2% final concentration of DMSO for data normalization as “neutral controls”. After compound treatment, cell plates were stored in a 37° C. incubator for 4 hours.
The cell plate was incubated at room temperature for 20 minutes. Well contents were aspirated and washed with 100 μL/well PBS 3 times. 50 μL/well of PBS (pH7.5) containing 0.5% w/v bovine serum albumen, 0.5% w/v Triton X-100 (Block/Permeabilzation Buffer) was added to each well. Samples were incubated for 20 minutes. Well contents were aspirated and washed 3 times with 100 μL/well of PBS. PBS was aspirated from the well and 50 μL per well of EoL-1 Block Buffer (PBS containing 10% Normal Goat Serum (Abcam #ab7481)) was added to each well. Plates were incubated at room temperature for 30 minutes. Block buffer was decanted from the wells.
25 μL per well of BRD4 antibody diluted in buffer was added and incubated overnight at 4° C. On day-2 samples were washed 3 times with 100 μL/well of PBS. […] Samples were incubated for 2 hours at room temperature. Samples were washed 3 times with 100 μL PBS.
as §3, with “Sinf” for “Sit”

MYC expression = experiment: Myc mRNA assay in MV-4-11 cells; format: cell-based; details: for Maximum Inhibition (%) (mean) of MYC expression: 4 hours, QuantiGene 2.0; for IC50: Homo sapiens, MV4-11, 4 hours, QuantiGene 2.0, read-out: Inhibition of MYC expression Average IC50
Protocol: Pharmacologic inhibition of MYC is achievable through targeting BET bromodomains through small molecule binder or degrader mechanisms.
Test compounds diluted in DMSO were transferred to the cell plates, keeping final DMSO concentration consistent at 0.1%, and incubated for 4 hours at 37° C. […] Luminescence was read using an EnVision plate reader (PerkinElmer) and IC50s generated in Genedata Screener using a 4-parameter non-linear regression fit.

[3] = 4 hours, immunofluorescence, read-out: Degradation of BRD4 Average EC50
[4] = read-out: Degradation of BRD4 Average EC50, 4 hours, immunofluorescence

| Compound | IC50 (BRD4_BD1 bromodomain) [nM] | IC50 (BRD4_BD2 bromodomain) [nM] | Dmax (BRD4 [1]; 4 hours) [%] | DC50 (BRD4 [1]; [3]) [nM] | DC50 (BRD4 [2]; [3]) [nM] | Maximum Inhibition (%) (mean) of MYC expression (MYC expression) | IC50 (MYC expression) [nM] | Dmax (BRD4 [2]; EOL1, 4 hours, complete loss = −100%, read-out: Sinf (maximum degradation, percent change in protein level)) [%] | DC50 (BRD4 [1]; [4]) [nM] | DC50 (BRD4 [2]; [4]) [nM] |
| --- | --- | --- | --- | --- | --- | --- | --- | --- | --- | --- |
| Cc1sc2c(c1C)C(c1ccc(C#CCN(C)C)cc1)=N[C@@H](CC(=O)OC(C)(C)C)c1nnc(C)n1-2 [Compound 3a, tert-butyl (S)-2-(4-(4-(3-(dimethylamino)prop-1-yn-1-yl)phenyl)-2,3,9-trimethyl-6H-thieno[3,2-f][1,2,4]triazolo[4,3-a][1,4]diazepin-6-yl)acetate] | 14.5 | 20.7 | -41.9 | > 20000 | > 20000 | 78.7 | 11.7 | – | – | – |
| CNCC#Cc1ccc(C2=N[C@@H](CC(=O)OC(C)(C)C)c3nnc(C)n3-c3sc(C)c(C)c32)cc1 [Compound 2a, tert-butyl (S)-2-(2,3,9-trimethyl-4-(4-(3-(methylamino)prop-1-yn-1-yl)phenyl)-6H-thieno[3,2-f][1,2,4]triazolo[4,3-a][1,4]diazepin-6-yl)acetate] | 14.4 | 17.1 | -21.8 | > 20000 | > 20000 | 77.9 | 11.1 | – | – | – |
| Cc1sc2c(c1C)C(c1ccc(C#CCN)cc1)=N[C@H](CC(=O)OC(C)(C)C)c1nnc(C)n1-2 [Compound 1b, tert-butyl (R)-2-(4-(4-(3-aminoprop-1-yn-1-yl)phenyl)-2,3,9-trimethyl-6H-thieno[3,2-f][1,2,4]triazolo[4,3-a][1,4]diazepin-6-yl)acetate] | 199 | 272 | -74.5 | 10.5 | 9 | 86.6 | 67.5 | -87 | – | – |
| CC#Cc1ccc(C2=N[C@@H](CC(=O)OC(C)(C)C)c3nnc(C)n3-c3sc(C)c(C)c32)cc1 [Compound 14a, tert-butyl (S)-2-(2,3,9-trimethyl-4-(4-(prop-1-yn-1-yl)phenyl)-6H-thieno[3,2-f][1,2,4]triazolo[4,3-a][1,4]diazepin-6-yl)acetate] | 18.8 | 20.3 | – | – | – | 73.6 | 97.2 | – | > 20000 | > 20000 |
